# Results: patent US7015228B2, “4-amino-2-(2-pyridyl)pyrimidines as microbicidal active substances” (Ciba Specialty Chemicals Corporation, priority 2001, dated 2006)
# Assays:
# [1] = tested on: Escherichia coli NCTC 8196; test: Minimum inhibitory concentration (MIC) in microtitre plates; type: cell-based; settings: Table 7, 48 hours at 37° C., MIC = ≦20% growth compared to control
# Protocol: (§1) Determination of the Minimum Inhibitory Concentration (MIC Value) in Microtitre Plates
# (§2) Casein-soybean flour-peptone broth for preparation of pre-cultures of test bacteria and yeast.
# (§3) Mycological slant agar for the pre-culture of moulds
# (§4) Examples of Test Organisms:
# (§5) The test substances are pre-dissolved in dimethyl sulfoxide (DMSO) and tested in a dilution series of 1:2.
# (§6) Bacteria and yeast are cultured overnight in CASO broth, the mould is cultured overnight on mycological slant agar, and washed off using 10 ml of 0.85% sodium chloride solution (+0.1% Triton X-100).
# (§7) All the test organisms are adjusted to an organism count of 1–5×10^6 CFU/ml using 0.85% sodium chloride solution.
# (§8) The test substances are pre-pipetted into microtitre plates in amounts of 8 μl per well.
# (§9) Pre-diluted organism suspensions are diluted 1:100 in CASO broth (bacteria and yeast) or Sabouraud 2% glucose broth (mould) and are added in amounts of 192 μl per well to the test substances.
# (§10) The test batches are incubated for 48 hours at 37° C. (bacteria and yeast) or for 5 days at 28° C. (mould).
# (§11) After incubation, the growth is determined on the basis of the turbidity of the test batches (optical density) at 620 nm in a microplate reader.
# (§12) The minimum inhibitory concentration (MIC value) is the concentration of substance at which there is found (compared to the growth of the control) an appreciable inhibition of growth (≦20% growth) of the test organisms.
# (§13) One microtitre plate is used for each test organism and substance concentration. All the substances are tested in duplicate.
# [2] = tested on: Staphylococcus hominis DMS 20328; test: as above; type: cell-based; settings: Table 7, 48 hours at 37° C., MIC = ≦20% growth compared to control
# Protocol: as §1, §2, §3, §4, §5, §6, §7, §8, §9, §10, §11, §12, §13
SMILES,Minimum inhibitory concentration (MIC) E. coli [1],Minimum inhibitory concentration (MIC) S. hominis [2],"MIC ([1]; Escherichia coli, NCTC8196, read-out: Minimum inhibitory concentration (MIC) E. coli)","MIC ([2]; Staphylococcus hominis, DMS20328, read-out: Minimum inhibitory concentration (MIC) S. hominis)"
CCc1c(C)nc(-c2ccccn2)nc1NCCCCCCCN [compound 4],>120 µg/mL,>120 µg/mL,–,–
CCc1c(C)nc(-c2ccccn2)nc1NCCCCCCCCN [compound 5],>120 µg/mL,>120 µg/mL,–,–
CCCCCCCCCCCCCCCCNc1nc(-c2ccccn2)nc(C)c1CC [compound 13],>120 µg/mL,120 µg/mL,–,–
CCCCCCCCCCCCCCCCNc1cc(C)nc(-c2ccccn2)n1 [compound 25],>120 µg/mL,15 µg/mL,–,–
NCCCCCCCNc1cc(C(F)(F)F)nc(-c2ccccn2)n1 [compound 28],>80 µg/mL,>80 µg/mL,–,–
NCCCCCCCCNc1cc(C(F)(F)F)nc(-c2ccccn2)n1 [compound 29],>80 µg/mL,>80 µg/mL,–,–
NCCCCCCCCCCCCNc1cc(C(F)(F)F)nc(-c2ccccn2)n1 [compound 31],20 µg/mL,5 µg/mL,–,–
CCCCCCCCCCCCNc1cc(C(F)(F)F)nc(-c2ccccn2)n1 [compound 36],–,–,> 120 µg/mL,60 µg/mL
FC(F)(F)c1cc(NC2CCCCC2)nc(-c2ccccn2)n1 [compound 38],>120 µg/mL,60 µg/mL,–,–
CCCCCCCCCCCCCCCCNc1cc(C(C)C)nc(-c2ccccn2)n1 [compound 49],>120 µg/mL,>120 µg/mL,–,–
CC(C)(C)c1cc(NCCCCCCCCN)nc(-c2ccccn2)n1 [compound 53],>80 µg/mL,80 µg/mL,–,–
CC(C)(C)c1cc(NCCCCCCCCCCCCN)nc(-c2ccccn2)n1 [compound 55],60 µg/mL,7.5 µg/mL,–,–
CCCCCCCCCCCCCCCCNc1cc(C(C)(C)C)nc(-c2ccccn2)n1 [compound 61],>120 µg/mL,>120 µg/mL,–,–
Cc1nc(-c2ccccn2)nc(NCCCCCCCN)c1C(C)C [compound 64],>120 µg/mL,30 µg/mL,–,–
Cc1nc(-c2ccccn2)nc(NCCCCCCCCCCCCN)c1C(C)C [compound 67],20 µg/mL,5 µg/mL,–,–
CCCCCCCCCCCCNc1nc(-c2ccccn2)nc(C)c1C(C)C [compound 72],>120 µg/mL,15 µg/mL,–,–
CCCCCCCCCCCCCCCCNc1nc(-c2ccccn2)nc(C)c1C(C)C [compound 73],>120 µg/mL,120 µg/mL,–,–
Cc1nc(-c2ccccn2)nc(NC2CCCCC2)c1C(C)C [compound 74],>120 µg/mL,60 µg/mL,–,–
CCCCCCCCNc1cc(CCOC)nc(-c2ccccn2)n1 [compound 81],>120 µg/mL,15 µg/mL,–,–
CCCCCCCCCNc1cc(CCOC)nc(-c2ccccn2)n1 [compound 82],120 µg/mL,7.5 µg/mL,–,–
CCCCCCCCCCCCNc1cc(CCOC)nc(-c2ccccn2)n1 [compound 84],120 µg/mL,15 µg/mL,–,–
CCCCCCCCCCCCCCCCNc1cc(CCOC)nc(-c2ccccn2)n1 [compound 85],120 µg/mL,120 µg/mL,–,–
CCCCCCCCCCCNc1cc(C(F)(F)F)nc(-c2ccccn2)n1 [compound 95],>120 µg/mL,120 µg/mL,–,–
CCCCCCCCCCCCCCCNc1cc(C(F)(F)F)nc(-c2ccccn2)n1 [compound 96],120 µg/mL,120 µg/mL,–,–

# More lines, now with the values ahead:
Minimum inhibitory concentration (MIC) E. coli [1],Minimum inhibitory concentration (MIC) S. hominis [2],"MIC ([1]; Escherichia coli, NCTC8196, read-out: Minimum inhibitory concentration (MIC) E. coli)","MIC ([2]; Staphylococcus hominis, DMS20328, read-out: Minimum inhibitory concentration (MIC) S. hominis)",SMILES
>120 µg/mL,>120 µg/mL,–,–,Cc1cc(NCCCCCCCN)nc(-c2ccccn2)n1 [compound 16]
>80 µg/mL,>80 µg/mL,–,–,Cc1cc(NCCCCCCCCN)nc(-c2ccccn2)n1 [compound 17]
120 µg/mL,7.5 µg/mL,–,–,CCCCCCCNc1cc(C)nc(-c2ccccn2)n1 [compound 20]
>120 µg/mL,30 µg/mL,–,–,FC(F)(F)c1cc(NCCc2ccccc2)nc(-c2ccccn2)n1 [compound 39]
>120 µg/mL,120 µg/mL,–,–,CC(C)c1cc(NCCCCCCCN)nc(-c2ccccn2)n1 [compound 40]
>120 µg/mL,120 µg/mL,–,–,CC(C)c1cc(NCCCCCCCCN)nc(-c2ccccn2)n1 [compound 41]
>120 µg/mL,15 µg/mL,–,–,CC(C)c1cc(NC2CCCCC2)nc(-c2ccccn2)n1 [compound 50]
>120 µg/mL,30 µg/mL,–,–,CC(C)c1cc(NCCc2ccccc2)nc(-c2ccccn2)n1 [compound 51]
>120 µg/mL,30 µg/mL,–,–,Cc1nc(-c2ccccn2)nc(NCCc2ccccc2)c1C(C)C [compound 75]
>80 µg/mL,40 µg/mL,–,–,COCCc1cc(NCCCCCCCN)nc(-c2ccccn2)n1 [compound 76]
>120 µg/mL,30 µg/mL,–,–,CCCCCCCNc1cc(CCOC)nc(-c2ccccn2)n1 [compound 80]
>120 µg/mL,120 µg/mL,–,–,COCCc1cc(NC2CCCCC2)nc(-c2ccccn2)n1 [compound 86]
120 µg/mL,30 µg/mL,–,–,COCCc1cc(NCCc2ccccc2)nc(-c2ccccn2)n1 [compound 87]
120 µg/mL,120 µg/mL,–,–,CCc1c(C)nc(-c2ccccn2)nc1NCc1ccccc1 [compound 88]
>120 µg/mL,30 µg/mL,–,–,Cc1cc(NCc2ccccc2)nc(-c2ccccn2)n1 [compound 91]
>120 µg/mL,>120 µg/mL,–,–,FC(F)(F)c1cc(NCc2ccccc2)nc(-c2ccccn2)n1 [compound 94]
120 µg/mL,15 µg/mL,–,–,CC(C)c1cc(NCc2ccccc2)nc(-c2ccccn2)n1 [compound 97]
